The values that follow come from patent publication US20260232662A1, “MIR-124 INDUCER, AND PREPARATION METHOD THEREFOR AND USE THEREOF” (NANJING SYNNOCARE PHARMACEUTICAL TECHNOLOGY CO., LTD., priority 2023, published 2026).

Molecules are shown by their SMILES.

Data set [1] concerns miR-124. Put plainly: Induction of miR-124 expression in PBMC cells (qPCR). The data set is classed as cell-based. Particulars: Homo sapiens, 72 h, 0.1 μM compound, human PBMCs stimulated with PMA/ionomycin, miR-191 reference gene, read-out: miR-124 expression, Fold change vs DMSO. A digest of the protocol:
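Human PBMCs (3.0*10^6 cells/well) were stimulated with PMA 10 ng/mL plus ionomycin 200 ng/mL for 48 h, then given compound at 0.1 μM final for 72 h. miR-124 was measured by RT-qPCR against miR-191 as reference gene. Expression is relative to DMSO control.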
On the technique in general: Real-time PCR tracks product formation cycle by cycle.

Data set [2] concerns DSS-induced IBD in mice. The experiment in a line: Preventive and therapeutic effects on DSS-induced inflammatory bowel disease (IBD) in mice. The data set is classed as in vivo. Conditions: for reduction in total DAI scores compared to the model group / Total Disease Activity Index (DAI) Scores / Colon length / colon length as % of normal control values / total DAI scores: 40 mg/kg p.o. q.d.; for body weight loss percentage / body weight gain percentage: day 10, 40 mg/kg p.o. q.d., female C57BL/6 mice, 2% DSS; for Total Disease Activity Index (DAI) Scores / total DAI scores: final day; for Total Disease Activity Index (DAI) Scores / Colon length: mean ± S.E.M.; for Total Disease Activity Index (DAI) Scores: model group 14.50; for Colon length: last experimental day, normal control 6.44, model group 4.98; for colon length as % of normal control values: model group 77.32%; for total DAI scores: model group 14.5 points; for preventive and therapeutic effects on DSS-induced IBD (body weight, DAI, colon length) relative to ABX464: further experiments, figures not given. From the text:
This study evaluated the preventive and therapeutic effects of the compounds of the present invention on dextran sulfate sodium (DSS)-induced IBD in mice. The experiment utilized female C57BL/6 mice (purchased from Beijing Vital River Laboratory Animal Technology Co., Ltd.) to establish the DSS-induced IBD model.
Female C57BL/6 mice (6-8 weeks old) were purchased from Beijing Vital River Laboratory Animal Technology Co., Ltd. Upon arrival, the mice were housed in individually ventilated cages (IVC) under specific pathogen-free (SPF) conditions, with 2-6 mice per cage. They were provided with ad libitum access to food and water and maintained at a temperature of 20-26° C. (68-79° F.), relative humidity of 40-70%, and a 12-hour light/dark cycle (lights on from 08:00 to 20:00). After a 7-day acclimatization period, experiments were initiated.
Test compounds and ABX464 vehicle: 5% DMSO+10% Solutol HS-15+85% saline, stored at 4° C.
DSS solution: 2% (w/v) DSS in autoclaved drinking water, prepared fresh before use.
The mice were randomly allocated into eight groups according to body weight: normal control group (negative control), model group (DSS group), ABX464 treatment group, test compound groups (administered with Compounds 19, 43, 59, 84, and 89 of the present invention at 40 mg/kg, p.o., q.d.)
Following a 7-day acclimation period, the model group and compound treatment groups were administered 2% DSS aqueous solution ad libitum for 7 days starting from Day 0, followed by 3 days of normal water consumption. All groups received daily oral gavage of their respective vehicles or test compounds for 10 consecutive days beginning on the trial commencement date. During the experimental period, body weight changes in mice were monitored and recorded daily, the Disease Activity Index (DAI) was scored each day with the total score calculated on the final day, and on the last experimental day all animals were humanely euthanized followed by colon collection and length measurement.
The experimental data were expressed as mean±standard error of the mean (mean±S.E.M.). Statistical analysis was performed using GraphPad Prism or SPSS software with appropriate statistical methods. A value of P<0.05 was considered statistically significant.

A short description of data set [3]: In vivo pharmacokinetic evaluation in mice. Conditions: mouse; male ICR mice, po, 10 mg/kg, plasma. Here is the method: The compound was administered orally (p.o.) at a dose of 10 mg/kg. The test formulation was prepared at a final concentration of 0.4 mg/mL in 5% DMSO+45% PEG400+50% aqueous solution or suspension. Male ICR mice (9 per group) were sampled at three discontinuous time points (n=3 mice/time point). Approximately 80 μL of blood was collected via orbital or cardiac puncture at 5 min, 15 min, 30 min, 1 h, 2 h, 4 h, 8 h, and 24 h post-dose. All whole blood samples were collected in EDTA K2-containing tubes. After centrifugation at 4° C. (4000 rpm, 10 min), plasma was collected and stored below −40° C. for subsequent analysis. Compound concentrations in plasma were determined by liquid chromatography-tandem mass spectrometry (LC-MS/MS), and pharmacokinetic parameters were derived from the plasma concentration-time curves.

Broadly, the AUC(0-t) is exposure summed from dosing to a finite time, without extrapolation to infinity. The term Cmax denotes the peak of the concentration-time curve. The term Tmax denotes the time from dosing to the highest level. For orientation: half-life means how long it takes for the measured level to halve. Consider `FC(F)(F)Oc1ccc(Nc2ccc3cccc(Cl)c3n2)cc1` [ABX464, reference compound], for which, in data set [1], the fold induction at 0.1 µM came to 13.5. Moreover, in data set [2], the “reduction in total DAI scores compared to the model group” value (“reduction in total DAI scores” for short) amounted to 5.72%, the “body weight loss percentage” value worked out at 5.37%, the “Total Disease Activity Index (DAI) Scores” value (“Total Disease Activity Index” for short) is 13.67 and the Colon length was 6.22 cm. Also, in data set [3], the AUC(0-t) was found to be 420 ng·h/mL, the highest level (Cmax) was 168 ng/mL, the Tmax was 0.5 h and the half-life is 1.08 h.
Turning to `FC(F)(F)Oc1ccc(Nc2nc3c(Cl)cccc3n3ccnc23)cc1Cl` [Compound 19], the fold induction at 0.1 µM in data set [1] was found to be 21.2. In addition, in data set [2], the “reduction in total DAI scores” value turned out to be 42.55%, the “colon length as % of normal control values” (“colon length as %” for short) is 96.27%, the “body weight gain percentage” value was found to be 0.16% and the “Total Disease Activity Index” value was 8.33. Further, in data set [2], the “total DAI scores” value is on record as 8.33 points and the Colon length is given as 6.20 cm. In data set [3], the AUC(0-t) worked out at 1640 ng·h/mL, the highest level (Cmax) was 358 ng/mL, the Tmax came out at 4 h and the half-life is 3.36 h.
With `Fc1cc(Nc2nc3c(F)cccc3n3ccnc23)ccc1OC(F)(F)F` [Compound 43], the fold induction at 0.1 µM in data set [1] amounted to 18.9. Further, in data set [2], the “colon length as %” value came to 99.69%, the “body weight loss percentage” value was determined as 2.22%, the “Total Disease Activity Index” value turned out to be 10.03 and the “total DAI scores” value is listed as 10.03 points. Further, in data set [2], the Colon length came to 6.42 cm. In data set [3], the AUC(0-t) is 1680 ng·h/mL, the concentration peaked (Cmax) at 348 ng/mL, the Tmax amounted to 2 h and the half-life was 3.87 h.
With `Fc1cc(Nc2nc3c(F)cc(Cl)cc3n3ccnc23)ccc1C(F)(F)F` [Compound 59], the fold induction at 0.1 µM in data set [1] stood at 20.5. In addition, in data set [2], the “reduction in total DAI scores” value worked out at 40.90%, the “colon length as %” value amounted to 100%, the “body weight gain percentage” value was found to be 2.12% and the “Total Disease Activity Index” value was found to be 8.57. In data set [2], the “total DAI scores” value worked out at 8.57 points and the Colon length was 6.48 cm.
Turning to `FC(F)(F)Oc1ccc(NC2=Nc3c(Br)cccc3N3CCN=C23)cc1Cl` [Compound 84], the fold induction at 0.1 µM in data set [1] is 15.5. For the same molecule, in data set [2], the “reduction in total DAI scores” value was determined as 41.59%, the “colon length as %” value was found to be 96.89%, the “body weight gain percentage” value turned out to be 0.38% and the “Total Disease Activity Index” value came out at 8.47. For the same molecule, in data set [2], the “total DAI scores” value came to 8.47 points and the Colon length is 6.24 cm.
As for `FC(F)(F)c1ccc(NC2=Nc3c(Cl)cc(Cl)cc3N3CCN=C23)cc1` [Compound 89], the fold induction at 0.1 µM in data set [1] stood at 24.3. Further, in data set [2], the “colon length as %” value amounted to 99.07%, the “body weight loss percentage” value came out at 1.85%, the “Total Disease Activity Index” value is on record as 10.33 and the “total DAI scores” value is reported as 10.33 points. The Colon length in data set [2] amounted to 6.38 cm. In data set [3], the AUC(0-t) came out at 1860 ng·h/mL, the Cmax was 454 ng/mL, the Tmax worked out at 2 h and the half-life was 3.46 h.
Turning to `FC(F)(F)Oc1ccc(Nc2nc3cc(Cl)ccc3n3ccnc23)cc1` [Compound B7, 7-chloro-N-(4-(trifluoromethoxy)phenyl)imidazolo [1,2-a]quinoxalin-4-amine], the fold induction at 0.1 µM in data set [1] is 32. In data set [2], the “preventive and therapeutic effects on DSS-induced IBD (body weight, DAI, colon length) relative to ABX464” value is “outperformed the reference drug ABX464”. In data set [3], the AUC(0-t) turned out to be 3240 ng·h/mL, the peak level (Cmax) was 378 ng/mL, the Tmax worked out at 2 h and the half-life was 3.05 h.
Take `Fc1cc(Nc2nc3cc(Cl)cc(Cl)c3n3ccnc23)ccc1C(F)(F)F` [Compound B97, 7,9-dichloro-N-(3-fluoro-4-(trifluoromethyl)phenyl) imidazolo[1,2-a] quinoxalin-4-amine]: the fold induction at 0.1 µM in data set [1] was 26.2. Further, the “preventive and therapeutic effects on DSS-induced IBD (body weight, DAI, colon length) relative to ABX464” value in data set [2] is “outperformed the reference drug ABX464”.
As for `FC(F)(F)Oc1ccc(Nc2nc3cc(Cl)ccc3n3ccnc23)cc1Cl` [Compound B108, 7-chloro-N-(3-chloro-4-(trifluoromethoxy)phenyl) imidazolo[1,2-a] quinoxalin-4-amine], the fold induction at 0.1 µM in data set [1] came out at 22.5. Further, in data set [2], the “preventive and therapeutic effects on DSS-induced IBD (body weight, DAI, colon length) relative to ABX464” value was “outperformed the reference drug ABX464”.
